Laboratory results as given in patent EP2601188B1, “HEPATITIS C VIRUS INHIBITORS” (Bristol-Myers Squibb Company, priority 2010, dated 2012).
Where two headings read alike, the source gives them in different places.

System: HCV 1b genotype
Experiment: HCV Replicon assay (HCV-neo replicon cells, wild-type)
Format: cell-based
Details: HCV 1b genotype replicon
Procedure: An HCV Replicon assay was utilized in the present disclosure, and was prepared, conducted and validated as described in commonly owned PCT/US2006/022197 and in O'Boyle et. al. Antimicrob Agents Chemother. 2005 Apr;49(4):1346-53. Assay methods incorporating luciferase reporters have also been used as described (Apath.com).
HCV-neo replicon cells and replicon cells containing mutations in the NS5A region were used to test the currently described family of compounds. The compounds were determined to have more than 10-fold less inhibitory activity on cells containing mutations than wild-type cells. Thus, the compounds of the present disclosure can be effective in inhibiting the function of the HCV NS5A protein and are understood to be as effective in combinations as previously described in application PCT/US2006/022197 and commonly owned WO/O4014852. Further, the compounds of the present disclosure can be effective against the HCV 1b genotype. It should also be understood that the compounds of the present disclosure can inhibit multiple genotypes of HCV. […] In one embodiment, compounds of the present disclosure are inhibitory versus 1a, 1b, 2a, 2b, 3a, 4a, and 5a genotypes.

[1] = Hepatitis C virus, class symbols, read-out: EC50 Range
[2] = Hepatitis C virus, values in nM, read-out: EC50
[3] = Hepatitis C virus, values given in pM, read-out: EC50

Q: Which results are given for `COC(=O)N[C@H](C(=O)N1CCC[C@H]1c1nc[nH]c1-c1cccc(C#Cc2ccc3[nH]c([C@@H]4CCCN4C(=O)[C@H](NC(=O)OC)C(C)C)nc3c2)c1)C(C)C` (stereo in doubt) [J.281, methyl ((1S)-1-(((2S)-2-(5-(3-((2-((2S)-1-((2R)-2-((methoxycarbonyl)amino)-3-methylbutanoyl)-2-pyrrolidinyl)-1H-benzimidazol-5-yl)ethynyl)phenyl)-1H-imidazol-4-yl)-1-pyrrolidinyl)carbonyl)-2-methylpropyl)carbamate]?
A: EC50 [1]: 4.57 to 99 nM; EC50 [2]: 7 nM

Q: How did the EC50 [3] turn out when `O=C([C@@H](c1ccccc1)N1CCCCC1)N1CCC[C@H]1c1nc(C#Cc2ccc(-c3ccc4[nH]c([C@@H]5CCCN5C(=O)[C@@H](c5ccccc5)N5CCCCC5)nc4c3)cc2)c[nH]1` [JB.12, 2-((2S)-1-((2R)-2-phenyl-2-(1-piperidinyl)acetyl)-2-pyrrolidinyl)-5-(4-((2-((2S)-1-((2R)-2-phenyl-2-(1-piperidinyl)acetyl)-2-pyrrolidinyl)-1H-imidazol-4-yl)ethynyl)phenyl)-1H-benzimidazole] was run?
A: 0.0652 nM

Q: Which results are given for `CC(=O)N1CCC[C@H]1C(=O)Nc1ccc(CCc2ccc3nc([C@@H]4CCCN4C(=O)Cc4ccccc4)[nH]c3c2)cc1` [M.10, (S)-1-acetyl-N-(4-(2-(2-((S)-1-(2-phenylacetyl)pyrrolidin-2-yl)-1H-benzo[d]imidazol-6-yl)ethyl)phenyl)pyrrolidine-2-carboxamide]?
A: EC50 [1]: 100 to 999 nM; EC50 [2]: 202 nM

Q: Which EC50 [1] does the source give for `O=C(Nc1ccc(CCc2ccc3nc([C@@H]4CCCN4C(=O)Cc4ccccc4)[nH]c3c2)cc1)[C@@H]1CCCN1C(=O)Cc1ccccc1` [M.11, (S)-1-(2-phenylacetyl)-N-(4-(2-(2-((S)-1-(2-phenylacetyl)pyrrolidin-2-yl)-1H-benzo [d]imidazol-6-yl)ethyl)phenyl)pyrrolidine-2-carboxamide] here?
A: 4.57 to 99 nM

Q: For `COC(=O)NC(C(=O)N1[C@@H](C)CC[C@H]1c1nc2ccc3cc(C#Cc4ccc5[nH]c([C@@H]6CC[C@H](C)N6C(=O)[C@@H](NC(=O)OC)C(C)C)nc5c4)ccc3c2[nH]1)C1CCOCC1` (stereo partly drawn) [J.28i.4a, methyl ((1S)-1-(((2S,5S)-2-(5-((2-((2S,5S)-1-(((methoxycarbonyl)amino)(tetrahydro-2H-pyran-4-yl)acetyl)-5-methyl-2-pyrrolidinyl)-1H-naphtho[1,2-d]imidazol-7-yl)ethynyl)-1H-benzimidazol-2-yl)-5-methyl-1-pyrrolidinyl)carbonyl)-2-methylpropyl)carbamate], which EC50 [2] is on record?
A: 3.8 nM

Q: `CC(=O)N1CCC[C@H]1C(=O)Nc1ccc(C#Cc2ccc3nc([C@@H]4CCCN4C(=O)Cc4ccccc4)[nH]c3c2)cc1` [M.8, (S)-1-acetyl-N-(4-((2-((S)-1-(2-phenylacetyl)pyrrolidin-2-yl)-1H-benzo[d]imidazol-6-yl)ethynyl)phenyl)pyrrolidine-2-carboxamide] was tested. Which EC50 [1] did it give?
A: 4.57 to 99 nM

Q: And the EC50 [2]?
A: 46.4 nM

Q: Which EC50 (class symbols, read-out: EC50 Range) does the source give for “(2R)-2-(dimethylamino)-N-(3-(5-(2-((2S)-1-((2R)-2-(dimethylamino)-2-phenylacetyl)-2-pyrrolidinyl)-1H-benzimidazol-5-yl)-1,3-oxazol-2-yl)phenyl)-2-phenylacetamide [J.48b]” here?
A: 4.57 to 99 nM

Q: With `COc1cccc2c(C(=O)N3CCC[C@H]3C(=O)Nc3ccc(-c4ncc(-c5ccc6[nH]c([C@@H]7CCCN7C(=O)c7nc(Cl)cc8c(OC)cccc78)nc6c5)o4)cc3)nc(Cl)cc12` [J.50c, 1-((3-chloro-5-methoxy-1-isoquinolinyl)carbonyl)-N-(4-(5-(2-((2S)-1-((3-chloro-5-methoxy-1-isoquinolinyl)carbonyl)-2-pyrrolidinyl)-1H-benzimidazol-5-yl)-1,3-oxazol-2-yl)phenyl)-L-prolinamide] as the molecule, how does the EC50 [1] read?
A: 1000 to 10000 nM

Q: What about the EC50 (Hepatitis C virus, value given in µM, read-out: EC50) of the same molecule?
A: > 10000 nM

Q: How did the EC50 [1] turn out when `O=C(Nc1ccc(-c2ncc(-c3ccc4[nH]c([C@@H]5CCCN5C(=O)[C@H](O)c5ccccc5)nc4c3)o2)cc1)[C@@H]1CCCN1C(=O)[C@H](O)c1ccccc1` [J.50, 1-((2R)-2-hydroxy-2-phenylacetyl)-N-(4-(5-(2-((2S)-1-((2R)-2-hydroxy-2-phenylacetyl)-2-pyrrolidinyl)-1H-benzimidazol-5-yl)-1,3-oxazol-2-yl)phenyl)-L-prolinamide] was run?
A: 4.57 to 99 nM

Q: Which EC50 [1] does the source give for `COc1cccc2c(C(=O)N3CCC[C@H]3C(=O)Nc3ccc(-c4ncc(-c5ccc6[nH]c([C@@H]7CCCN7C(=O)c7nc(Cl)cc8c(OC)cccc78)nc6c5)o4)cc3F)nc(Cl)cc12` [J.51b, 1-((3-chloro-5-methoxy-1-isoquinolinyl)carbonyl)-N-(4-(5-(2-((2S)-1-((3-chloro-5-methoxy-1-isoquinolinyl)carbonyl)-2-pyrrolidinyl)-1H-benzimidazol-5-yl)-1,3-oxazol-2-yl)-2-fluorophenyl)-L-prolinamide] here?
A: 100 to 999 nM

Q: With `COC(=O)N[C@@H](C(=O)N1CCC[C@H]1c1nc2cc(-c3ccc(-c4ccc5c(ccc6nc([C@@H]7CCCN7C(=O)[C@H](NC(=O)OC)c7ccccc7)[nH]c65)c4)cc3)ccc2[nH]1)c1ccccc1` [J.27c, methyl ((1R)-2-((2S)-2-(7-(4-(2-((2S)-1-((2R)-2-((methoxycarbonyl)amino)-2-phenylacetyl)-2-pyrrolidinyl)-1H-benzimidazol-5-yl)phenyl)-1H-naphtho[1,2-d]imidazol-2-yl)-1-pyrrolidinyl)-2-oxo-1-phenylethyl)carbamate] as the molecule, how does the EC50 [3] read?
A: 0.003 nM

Q: How did the EC50 [3] turn out when `COC(=O)N[C@H](C(=O)N1CCC[C@H]1c1nc(-c2ccc(-c3ccc(-c4ccc5[nH]c([C@@H]6CCCN6C(=O)[C@@H](NC(=O)OC)C(C)C)nc5c4)cc3)cc2)c[nH]1)C(C)C` [J.26, methyl ((1S)-1-(((2S)-2-(5-(4'-(2-((2S)-1-((2S)-2-((methoxycarbonyl)amino)-3-methylbutanoyl)-2-pyrrolidinyl)-1H-imidazol-4-yl)-4-biphenylyl)-1H-benzimidazol-2-yl)-1-pyrrolidinyl)carbonyl)-2-methylpropyl)carbamate] was run?
A: 0.005 nM

Q: With `O=C(Nc1ccc(C#Cc2ccc3nc([C@@H]4CCCN4C(=O)Cc4ccccc4)[nH]c3c2)cc1)[C@@H]1CCCN1C(=O)Cc1ccccc1` [M.9, (S)-1-(2-phenylacetyl)-N-(4-((2-((S)-1-(2-phenylacetyl)pyrrolidin-2-yl)-1H-benzo [d]imidazol-6-yl)ethynyl)phenyl)pyrrolidine-2-carboxamide] as the molecule, how does the EC50 [1] read?
A: 4.57 to 99 nM

Q: Which EC50 [3] does the source give for `COC(=O)N[C@H](C(=O)N1CCC[C@H]1c1nc2c(F)cc(C#Cc3ccc4c(ccc5nc([C@@H]6CCCN6C(=O)[C@@H](NC(=O)OC)C(C)C)[nH]c54)c3)cc2[nH]1)C(C)C` [J.28h, methyl ((1S)-1-(((2S)-2-(4-fluoro-6-((2-((2S)-1-((2S)-2-((methoxycarbonyl)amino)-3-methylbutanoyl)-2-pyrrolidinyl)-1H-naphtho [1,2-d]imidazol-7-yl)ethynyl)-1H-benzimidazol-2-yl)-1-pyrrolidinyl)carbonyl)-2-methylpropyl)carbamate] here?
A: 0.12 nM

Q: How did the EC50 [1] turn out when `O=C(Nc1cccc(-c2cnc(-c3ccc4[nH]c([C@@H]5CCCN5C(=O)CC5CC5)nc4c3)o2)c1)[C@@H]1CCCN1C(=O)CC1CC1` [J.53a, 1-(cyclopropylacetyl)-N-(3-(2-(2-((2S)-1-(cyclopropylacetyl)-2-pyrrolidinyl)-1H-benzimidazol-5-yl)-1,3-oxazol-5-yl)phenyl)-L-prolinamide] was run?
A: 1000 to 10000 nM
